Measurements: PubChem BioAssay (NCI)
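Briefly, cells in 96-well plates were exposed to five compound concentrations for 48 h, and endpoints were estimated by linear interpolation. TGI denotes the concentration required for complete inhibition of growth.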

Tests used:
Test in all cases: NCI-60 cell line screen, 48 h
786-0 renal = test system: 786-0 renal
A498 renal = test system: A498 renal
A549 NSCLC = test system: A549 NSCLC
ACHN renal = test system: ACHN renal
BT-549 breast = test system: BT-549 breast
CAKI-1 renal = test system: CAKI-1 renal
CCRF-CEM leukemia = test system: CCRF-CEM leukemia
COLO 205 colon = test system: COLO 205 colon
EKVX NSCLC = test system: EKVX NSCLC
HCT-116 colon = test system: HCT-116 colon
HCT-15 colon = test system: HCT-15 colon
HOP-62 NSCLC = test system: HOP-62 NSCLC
HOP-92 NSCLC = test system: HOP-92 NSCLC
HS 578T breast = test system: HS 578T breast
HT29 colon = test system: HT29 colon
IGROV1 ovarian = test system: IGROV1 ovarian
K-562 leukemia = test system: K-562 leukemia
KM12 colon = test system: KM12 colon
LOX IMVI melanoma = test system: LOX IMVI melanoma
M14 melanoma = test system: M14 melanoma
MALME-3M melanoma = test system: MALME-3M melanoma
MCF7 breast = test system: MCF7 breast
MDA-MB-231 breast = test system: MDA-MB-231 breast
MDA-MB-435 = test system: MDA-MB-435
MDA-N = test system: MDA-N
MOLT-4 leukemia = test system: MOLT-4 leukemia
NCI-H226 lung = test system: NCI-H226 lung
NCI-H23 lung = test system: NCI-H23 lung
NCI-H460 lung = test system: NCI-H460 lung
NCI-H522 lung = test system: NCI-H522 lung
NCI/ADR-RES ovarian = test system: NCI/ADR-RES ovarian
OVCAR-3 ovarian = test system: OVCAR-3 ovarian
OVCAR-4 ovarian = test system: OVCAR-4 ovarian
OVCAR-5 ovarian = test system: OVCAR-5 ovarian
OVCAR-8 ovarian = test system: OVCAR-8 ovarian
PC-3 prostate = test system: PC-3 prostate
RPMI-8226 leukemia = test system: RPMI-8226 leukemia
RXF 393 renal = test system: RXF 393 renal
SF-268 CNS = test system: SF-268 CNS
SF-295 CNS = test system: SF-295 CNS
SF-539 CNS = test system: SF-539 CNS
SK-MEL-2 melanoma = test system: SK-MEL-2 melanoma
SK-MEL-5 melanoma = test system: SK-MEL-5 melanoma
SK-OV-3 ovarian = test system: SK-OV-3 ovarian
SNB-19 CNS = test system: SNB-19 CNS
SNB-75 CNS = test system: SNB-75 CNS
SR leukemia = test system: SR leukemia
SW-620 colon = test system: SW-620 colon
T-47D breast = test system: T-47D breast
TK-10 renal = test system: TK-10 renal
U251 CNS = test system: U251 CNS
UACC-257 melanoma = test system: UACC-257 melanoma
UACC-62 melanoma = test system: UACC-62 melanoma
UO-31 renal = test system: UO-31 renal
DU-145 prostate = test system: DU-145 prostate
HCC-2998 colon = test system: HCC-2998 colon
HL-60(TB) leukemia = test system: HL-60(TB) leukemia
SK-MEL-28 melanoma = test system: SK-MEL-28 melanoma
SN12C renal = test system: SN12C renal

Compound `Cn1c(COC(=O)NC2CCCCC2)c(COC(=O)NC2CCCCC2)c2ccc3ccccc3c21` has a TGI (786-0 renal) greater than 100 µM, a TGI (A498 renal) of 32 µM and a TGI (A549 NSCLC) greater than 100 µM. For the same compound, the TGI (ACHN renal) was 53.6 µM, the TGI (BT-549 breast) was greater than 100 µM and the TGI (CAKI-1 renal) was 70.6 µM. For the same compound, the TGI (CCRF-CEM leukemia) was greater than 100 µM, the TGI (COLO 205 colon) was greater than 100 µM and the TGI (EKVX NSCLC) was greater than 100 µM. For the same compound, the TGI (HCT-116 colon) was greater than 100 µM, the TGI (HCT-15 colon) was greater than 100 µM and the TGI (HOP-62 NSCLC) was greater than 100 µM. The TGI (HOP-92 NSCLC) was greater than 100 µM, the TGI (HS 578T breast) was greater than 100 µM and the TGI (HT29 colon) was greater than 100 µM. The TGI (IGROV1 ovarian) was greater than 100 µM, the TGI (K-562 leukemia) was greater than 100 µM and the TGI (KM12 colon) was greater than 100 µM. It also gave a TGI (LOX IMVI melanoma) greater than 100 µM, a TGI (M14 melanoma) greater than 100 µM and a TGI (MALME-3M melanoma) greater than 100 µM. It also gave a TGI (MCF7 breast) greater than 100 µM, a TGI (MDA-MB-231 breast) greater than 100 µM and a TGI (MDA-MB-435) greater than 100 µM. It also gave a TGI (MDA-N) greater than 100 µM, a TGI (MOLT-4 leukemia) greater than 100 µM and a TGI (NCI-H226 lung) of 95.8 µM. It also gave a TGI (NCI-H23 lung) of 71.6 µM, a TGI (NCI-H460 lung) of 13.5 µM and a TGI (NCI-H522 lung) of 31.5 µM. For the same compound, the TGI (NCI/ADR-RES ovarian) was 62 µM, the TGI (OVCAR-3 ovarian) was greater than 100 µM and the TGI (OVCAR-4 ovarian) was greater than 100 µM. The TGI (OVCAR-5 ovarian) was greater than 100 µM, the TGI (OVCAR-8 ovarian) was greater than 100 µM and the TGI (PC-3 prostate) was greater than 100 µM. It also gave a TGI (RPMI-8226 leukemia) greater than 100 µM, a TGI (RXF 393 renal) of 83.3 µM and a TGI (SF-268 CNS) greater than 100 µM. It also gave a TGI (SF-295 CNS) greater than 100 µM, a TGI (SF-539 CNS) of 66.2 µM and a TGI (SK-MEL-2 melanoma) of 93.4 µM. For the same compound, the TGI (SK-MEL-5 melanoma) was greater than 100 µM, the TGI (SK-OV-3 ovarian) was greater than 100 µM and the TGI (SNB-19 CNS) was greater than 100 µM. The TGI (SNB-75 CNS) was 78.9 µM, the TGI (SR leukemia) was greater than 100 µM and the TGI (SW-620 colon) was greater than 100 µM. The TGI (T-47D breast) was greater than 100 µM, the TGI (TK-10 renal) was greater than 100 µM and the TGI (U251 CNS) was greater than 100 µM. For the same compound, the TGI (UACC-257 melanoma) was greater than 100 µM, the TGI (UACC-62 melanoma) was greater than 100 µM and the TGI (UO-31 renal) was greater than 100 µM.
In the case of `Fc1nc(Sc2ncnc3nc[nH]c23)nc(-c2c3ccccc3c3sc4ccccc4n23)n1`, the TGI (786-0 renal) is reported as greater than 100 µM, the TGI (A498 renal) is reported as greater than 100 µM and the TGI (A549 NSCLC) is reported as greater than 100 µM. It also gave a TGI (ACHN renal) greater than 100 µM, a TGI (BT-549 breast) greater than 100 µM and a TGI (CAKI-1 renal) greater than 100 µM. The TGI (CCRF-CEM leukemia) was greater than 100 µM, the TGI (COLO 205 colon) was greater than 100 µM and the TGI (DU-145 prostate) was greater than 100 µM. The TGI (EKVX NSCLC) was greater than 100 µM, the TGI (HCC-2998 colon) was greater than 100 µM and the TGI (HCT-116 colon) was greater than 100 µM. The TGI (HCT-15 colon) was greater than 100 µM, the TGI (HL-60(TB) leukemia) was greater than 100 µM and the TGI (HOP-62 NSCLC) was greater than 100 µM. It also gave a TGI (HOP-92 NSCLC) greater than 100 µM, a TGI (HS 578T breast) greater than 100 µM and a TGI (HT29 colon) greater than 100 µM. For the same compound, the TGI (IGROV1 ovarian) was greater than 100 µM, the TGI (K-562 leukemia) was greater than 100 µM and the TGI (KM12 colon) was greater than 100 µM. For the same compound, the TGI (LOX IMVI melanoma) was greater than 100 µM, the TGI (M14 melanoma) was greater than 100 µM and the TGI (MALME-3M melanoma) was greater than 100 µM. It also gave a TGI (MCF7 breast) greater than 100 µM, a TGI (MDA-MB-231 breast) greater than 100 µM and a TGI (MDA-MB-435) greater than 100 µM. For the same compound, the TGI (MDA-N) was greater than 100 µM, the TGI (MOLT-4 leukemia) was greater than 100 µM and the TGI (NCI-H226 lung) was greater than 100 µM. For the same compound, the TGI (NCI-H23 lung) was greater than 100 µM, the TGI (NCI-H460 lung) was greater than 100 µM and the TGI (NCI-H522 lung) was greater than 100 µM. The TGI (NCI/ADR-RES ovarian) was greater than 100 µM, the TGI (OVCAR-3 ovarian) was greater than 100 µM and the TGI (OVCAR-4 ovarian) was greater than 100 µM. It also gave a TGI (OVCAR-5 ovarian) greater than 100 µM, a TGI (OVCAR-8 ovarian) greater than 100 µM and a TGI (PC-3 prostate) greater than 100 µM. The TGI (RPMI-8226 leukemia) was greater than 100 µM, the TGI (RXF 393 renal) was greater than 100 µM and the TGI (SF-268 CNS) was greater than 100 µM. For the same compound, the TGI (SF-295 CNS) was greater than 100 µM, the TGI (SF-539 CNS) was greater than 100 µM and the TGI (SK-MEL-2 melanoma) was greater than 100 µM. For the same compound, the TGI (SK-MEL-28 melanoma) was greater than 100 µM, the TGI (SK-MEL-5 melanoma) was greater than 100 µM and the TGI (SK-OV-3 ovarian) was greater than 100 µM. The TGI (SN12C renal) was greater than 100 µM, the TGI (SNB-19 CNS) was greater than 100 µM and the TGI (SNB-75 CNS) was greater than 100 µM. For the same compound, the TGI (SW-620 colon) was greater than 100 µM, the TGI (T-47D breast) was greater than 100 µM and the TGI (TK-10 renal) was greater than 100 µM. It also gave a TGI (U251 CNS) greater than 100 µM, a TGI (UACC-257 melanoma) greater than 100 µM and a TGI (UACC-62 melanoma) greater than 100 µM. For the same compound, the TGI (UO-31 renal) was greater than 100 µM.
Work on `CC1OC23CCCCC2C(C#N)(C#N)C1(C#N)C(=N)O3` (centres undefined) yielded a TGI (786-0 renal) of 28.6 µM, a TGI (A498 renal) of 61.6 µM and a TGI (A549 NSCLC) greater than 100 µM. It also gave a TGI (ACHN renal) of 42.8 µM, a TGI (BT-549 breast) of 34.4 µM and a TGI (CAKI-1 renal) of 19.8 µM. It also gave a TGI (CCRF-CEM leukemia) of 46.8 µM, a TGI (COLO 205 colon) of 38.5 µM and a TGI (DU-145 prostate) of 66.5 µM. It also gave a TGI (EKVX NSCLC) of 91.1 µM, a TGI (HCC-2998 colon) of 50.1 µM and a TGI (HCT-116 colon) of 36.2 µM. It also gave a TGI (HCT-15 colon) of 37.6 µM, a TGI (HL-60(TB) leukemia) of 22.1 µM and a TGI (HOP-92 NSCLC) of 29.3 µM. It also gave a TGI (HS 578T breast) of 57.8 µM, a TGI (HT29 colon) greater than 100 µM and a TGI (IGROV1 ovarian) of 41.9 µM. It also gave a TGI (K-562 leukemia) greater than 100 µM, a TGI (KM12 colon) of 61.1 µM and a TGI (LOX IMVI melanoma) of 40.2 µM. It also gave a TGI (M14 melanoma) of 40.3 µM, a TGI (MALME-3M melanoma) of 43.5 µM and a TGI (MCF7 breast) of 52.3 µM. It also gave a TGI (MDA-MB-231 breast) of 32.1 µM, a TGI (MDA-MB-435) of 50.9 µM and a TGI (MDA-N) of 35.8 µM. The TGI (MOLT-4 leukemia) was 90.1 µM, the TGI (NCI-H226 lung) was greater than 100 µM and the TGI (NCI-H23 lung) was 52.7 µM. The TGI (NCI-H460 lung) was 43.5 µM, the TGI (NCI/ADR-RES ovarian) was greater than 100 µM and the TGI (OVCAR-3 ovarian) was 36.5 µM. It also gave a TGI (OVCAR-5 ovarian) of 52.6 µM, a TGI (OVCAR-8 ovarian) of 54.1 µM and a TGI (PC-3 prostate) of 69.2 µM. It also gave a TGI (RXF 393 renal) of 44.5 µM, a TGI (SF-268 CNS) of 60.3 µM and a TGI (SF-295 CNS) greater than 100 µM. The TGI (SF-539 CNS) was 45.1 µM, the TGI (SK-MEL-2 melanoma) was 43.5 µM and the TGI (SK-MEL-28 melanoma) was 56 µM. For the same compound, the TGI (SK-MEL-5 melanoma) was 32.3 µM, the TGI (SK-OV-3 ovarian) was greater than 100 µM and the TGI (SN12C renal) was 30.1 µM. For the same compound, the TGI (SNB-19 CNS) was 65.2 µM, the TGI (SNB-75 CNS) was greater than 100 µM and the TGI (SW-620 colon) was 98.3 µM. For the same compound, the TGI (T-47D breast) was 53.6 µM, the TGI (TK-10 renal) was 46.8 µM and the TGI (U251 CNS) was 71.5 µM. For the same compound, the TGI (UACC-257 melanoma) was 37.6 µM.
